According to article PMC2947157, “Development of a FLIPR Assay for the Simultaneous Identification of MrgD Agonists and Antagonists from a Single Screen” (Journal of Biomedicine and Biotechnology, 2010):
Several values for one entry are separate records, joined by “and”; a condition that tells them apart may be missing. Equal values may be shown once. Where a name gives a salt, the structure may show the parent alone. Read-outs that look alike come from different tables or passages of the source.

Key:
MrgD [1] = biological target: T1, MrgD (Homo sapiens, UniProt Q8TDS7); assay: Calcium mobilization FLIPR assay, agonist dose-response, CHO-DUKX cells expressing human MrgD; type: cell-based; conditions: for FLIPR response in human MrgD expressing cells: result in words
T1 construct: expressed in transfected cells
Description: (§1) A Kozak sequence and HA epitope tag were incorporated in the forward primer. […] A Kozak sequence and c-Myc epitope tag were incorporated in the forward primer. The resulting PCR products were cloned into the Xba I and EcoR I sites of pHTOP vector, a proprietary derivative of the pED expression vector [12]. For transfection, CHO-DUKX-A2 cells (DHFR(−) CHO cell line stably expressing the tetracycline transactivator) were grown in M alpha media containing 1% MEM nonessential amino acids solution (NEAA), 10% fetal bovine serum (FBS), and 500 ug/mL G418. MrgDpHTOP was transfected using Lipofectamine Plus reagents as per the manufacturer's recommendations. Antibiotic selection was performed using Dulbecco's modified Eagle medium supplemented with 10% FBS, 100 units/mL penicillin, 100 μg/mL streptomycin, 1% NEAA, and 20 nM methotrexate (Calbiochem, San Diego, CA). Cell lines were maintained at 37°C in a humidified atmosphere containing 5% CO2. Surviving colonies were expanded further and used for functional analysis. Clones of human MrgD expressing cell lines were evaluated initially for MrgD transcript level by Taqman analysis and normalized against the house-keeping gene GAPDH (Glyceraldehyde-3-phosphate dehydrogenase).
(§2) CHO-DUKX-A2 cells stably expressing human or rat MrgD were plated in 384-well tissue-culture-treated polystyrene black clear flat-bottom assay plates (BD Biosciences, San Jose, CA). Thirty μL of 8 × 10^5 cells/mL (24,000 cells/well) were plated and maintained for ~24 hrs at 37°C in a humidified atmosphere containing 5% CO2. After removal of the growth medium, cells were incubated with 30 μL of Ca3 dye (Molecular Devices Corporation, Sunnyvale, CA) containing 2.5 mM freshly prepared probenecid made according to the manufacturer's protocol. Agonists were prepared in 1x Hanks balanced salt solution (HBSS) buffer with 20 mM HEPES buffer. Changes in intracellular Ca^2+ were monitored using the Fluorometric Imaging Plate Reader (FLIPR; Molecular Devices, Sunnyvale, CA). For the double addition protocols, compounds were added by the FLIPR, and readings were taken for 3 min, followed by the addition of the agonist. The change in intracellular calcium [Ca^2+] was monitored as an increase in relative fluorescence units (RFUS), and the difference between maximum and minimum RFU was used to calculate dose-response curves. Data analysis was performed using PRISM 4.0 (GraphPAD Software Inc.). For the LOPAC screen, cells were plated in 96-well tissue-culture-treated polystyrene black clear flat-bottom assay plates (BD Biosciences, San Jose, CA). One hundred μL of cells (40,000 cells/well) were plated and maintained under the same conditions as above. For the assay, growth medium was replaced with 90 μL of Ca3 dye containing 2.5 mM freshly prepared probenecid. The FLIPR added 10 μL of beta-alanine at 100 μM final concentration. For antagonist dose-response assays, the cells were incubated with the compounds for ~30 minutes after which beta-alanine at a final concentration of 10 μM was added by the FLIPR.
Target sequence in this assay (Q8TDS7 whole entry): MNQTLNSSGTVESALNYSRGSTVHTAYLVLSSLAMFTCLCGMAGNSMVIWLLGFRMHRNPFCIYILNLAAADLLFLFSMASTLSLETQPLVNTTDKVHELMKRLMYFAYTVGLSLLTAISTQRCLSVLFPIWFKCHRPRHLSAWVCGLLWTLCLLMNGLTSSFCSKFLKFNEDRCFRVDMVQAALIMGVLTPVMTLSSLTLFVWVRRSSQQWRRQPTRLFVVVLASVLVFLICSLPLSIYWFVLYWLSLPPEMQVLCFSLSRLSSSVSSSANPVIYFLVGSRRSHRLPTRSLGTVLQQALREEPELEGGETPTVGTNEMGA

rat MrgD = biological target: T2, rat MrgD (Rattus norvegicus, UniProt Q7TN41); assay: Calcium mobilization FLIPR assay, agonist dose-response, CHO-DUKX cells expressing rat MrgD; type: cell-based; conditions: for EC50 / EC50 Rat MrgD: CHO-DUKX cells, FLIPR, Table 1: mean ± SD from 2–6 independent experiments; for FLIPR response in rat MrgD expressing cells: result in words
T2 construct: expressed in transfected cells
T2 sequence (Q7TN41 1-319): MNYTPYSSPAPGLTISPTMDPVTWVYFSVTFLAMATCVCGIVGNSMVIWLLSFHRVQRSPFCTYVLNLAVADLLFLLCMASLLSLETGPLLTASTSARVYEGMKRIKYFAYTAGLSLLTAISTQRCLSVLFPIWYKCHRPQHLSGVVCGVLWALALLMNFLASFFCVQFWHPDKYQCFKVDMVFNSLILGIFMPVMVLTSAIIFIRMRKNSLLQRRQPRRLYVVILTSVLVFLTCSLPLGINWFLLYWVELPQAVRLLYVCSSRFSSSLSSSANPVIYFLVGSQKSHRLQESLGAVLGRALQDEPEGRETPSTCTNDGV
Description: as §1, §2

[2] = tested on: MrgD expressing cell lines; conditions: read-out: EC50 for MrgD expressing cell lines, cited from earlier work
MrgD [3] = biological target: T1, MrgD; assay: Dual-addition FLIPR LOPAC library screen (test compound, then beta-alanine); type: cell-based; conditions: dual-addition format; for Calcium mobilization following addition of beta-alanine (addition 2) in LOPAC screen: beta-alanine 100 μM, Figure 4(b)
Description: as §2
Target sequence in this assay (Q8TDS7 whole entry, species assumed): as the sequence (Q8TDS7 whole entry) above
We developed an assay that could allow both agonists and antagonists to be distinguished in a single screen. Employing such an assay format should enable the identification of tool compounds that may help in elucidating the role of MrgD in pain. The diagram in Figure 3 describes the dual-addition assay format where addition of the test compound (addition 1) is followed by the addition of beta-alanine (addition 2). A FLIPR response immediately upon the addition of a test compound would indicate its activity as an agonist. On the other hand, if the compound behaves as an antagonist, not only will there be a lack of response to this test compound, it will also attenuate the effects of the subsequent addition of beta-alanine. In the event of no receptor engagement by the test compound, a normal agonist response will be observed to beta-alanine. We validated this assay format, which was robust and consistent with a Z′ factor greater than 0.7.
Figure 3 Assay format for the identification of an agonist and antagonist from a single screen. Test compound is added first followed by a second addition of beta-alanine. An agonist will induce a FLIPR response immediately upon the addition of a test compound. An antagonist will cause a pharmacological blockade of the MrgD receptor resulting in attenuation or complete lack of response to beta-alanine. In the event of no receptor engagement, a normal agonist response will be observed from beta-alanine addition.
Figure 4 Representative FLIPR traces obtained from LOPAC screen. Compounds from the LOPAC library were applied followed by the addition of beta-alanine. […]

MrgD [4] = biological target: T1, MrgD; assay: FLIPR antagonist dose-response assay against beta-alanine; type: cell-based; conditions: beta-alanine 10 μM, ~30 min preincubation
Description: as §2
Target sequence in this assay (Q8TDS7 whole entry, species assumed): as the sequence (Q8TDS7 whole entry) above

[5] = tested on: beta-alanine-induced calcium mobilization in MrgD CHO-DUKX cells; assay: Evaluation of Gi and Gq coupling of MrgD by FLIPR response to beta-alanine; type: cell-based; conditions: 100 μM beta-alanine
Description: MrgD is known to couple through both Gi and Gq. To further explore the utility of the cell line for a potential secondary assay measuring cAMP, we investigated whether the FLIPR assay was capable of distinguishing the extent of Gi and Gq coupling of MrgD. MrgD CHO-DUKX cells were treated with either the Gi inhibitor pertussis toxin (PTX) overnight or the phospholipase C (PLC) inhibitor U-73122 for 30 or 60 minutes and then evaluated for their responses to beta-alanine.
Figure 2 Evaluation of Gq (Figure 2(a)) and Gi (Figure 2(b)) coupling of MrgD receptors assessed using FLIPR response. MrgD cells were pretreated with the PLC inhibitor (U-73122 at 2 μM for 30 or 60 minutes) or pertussis toxin (100 ng overnight) for blocking Gi coupling to MrgD. FLIPR responses were evaluated by the addition of 100 μM beta-alanine.

[6] = CHO-DUKX cells, FLIPR, Table 1: mean ± SD from 2–6 independent experiments, read-out: EC50 Human MrgD
[7] = HA 966 racemate and enantiomers, species not stated at place, racemate value equals human MrgD value of Table 2, read-out: EC50 as MrgD agonist (Figure 5(a))
[8] = CHO-DUKX cells, FLIPR, Table 1: mean ± SD from 2–6 independent experiments
[9] = unit inferred, read-out: IC50 as MrgD antagonist (dose response analysis)

Compound: 5, 7 dihydroxytryptamine creatinine sulfate
- EC50 (MrgD [1]; [6]): 5.2 µM
- EC50 (rat MrgD): 9.7 µM

Compound: NC1CCN(O)C1=O (racemic) [(±) HA 966]
- EC50 (MrgD [1]; [6]): 11 µM
- EC50 (rat MrgD): 13.2 µM

Compound: NC1CCN(O)C1=O (single isomer, unassigned; (+)) [(+) HA 966]
- EC50 (MrgD [1]; [7]): 106 µM

Compound: NC1CCN(O)C1=O (single isomer, unassigned; (-)) [(−) HA 966]
- EC50 (MrgD [1]; [7]): 5.5 µM

Compound: NCCC(=O)O [Beta-alanine]
- EC50 (MrgD [1]; [6]): 1 to 4 µM and 3.76 µM
- EC50 (rat MrgD): 1 to 4 µM and 3.77 µM
- EC50 ([2]; ref 9): 15 ± 1 µM
- EC50 ([2]; ref 11): 8.6 µM

Compound: NCCCC(=O)O [GABA, gamma-aminobutyric acid]
- EC50 (MrgD [1]; [6]): 53 ± 26 µM
- FLIPR response in human MrgD expressing cells (MrgD [1]): weakly stimulated
- EC50 (rat MrgD): 49.8 ± 1.5 µM
- FLIPR response in rat MrgD expressing cells (rat MrgD): weakly stimulated
- Response to test compound (addition 1) in LOPAC screen (MrgD [3]; Figure 4(a)): evoked a response

Compound: NCC1(CC(=O)O)CCCCC1 [Gabapentin]
- EC50 Human MrgD (MrgD [1]; [8]): No effect
- FLIPR response in human MrgD expressing cells (MrgD [1]): failed to induce a response
- EC50 Rat MrgD (rat MrgD): No effect
- FLIPR response in rat MrgD expressing cells (rat MrgD): failed to induce a response

Compound: NCC(=O)O [Glycine]
- EC50 (MrgD [1]; [6]): > 100 µM
- FLIPR response in human MrgD expressing cells (MrgD [1]): not
- EC50 (rat MrgD): > 100 µM
- FLIPR response in rat MrgD expressing cells (rat MrgD): not

Compound: CC(C)C[C@H](CN)CC(=O)O [Pregabalin]
- EC50 Human MrgD (MrgD [1]; [8]): No effect
- FLIPR response in human MrgD expressing cells (MrgD [1]): failed to induce a response
- EC50 Rat MrgD (rat MrgD): No effect
- FLIPR response in rat MrgD expressing cells (rat MrgD): failed to induce a response

Compound: CCCN1CCc2cccc3c2[C@H]1Cc1ccc(O)c(O)c1-3.Cl [R(−)-Propylnorapomorphine hydrochloride]
- IC50 (MrgD [4]; [9]): 1.46 µM
- Calcium mobilization following addition of beta-alanine (addition 2) in LOPAC screen (MrgD [3]): attenuation or complete absence of calcium mobilization

Compound: COc1ccc2c(c1)CC[C@@H]1[C@@H]2CC[C@]2(C)[C@@H](NCCCCCCN3C(=O)C=CC3=O)CC[C@@H]12 [U-73122]
- Effect on FLIPR response to beta-alanine ([5]; U-73122 at 2 μM for 30 or 60 minutes): completely blocked

Compound: CCCn1c(=O)c2[nH]c(-c3ccc(OCC(=O)NCCN)cc3)nc2n(CCC)c1=O [Xanthine amine congener]
- EC50 (MrgD [1]; [6]): > 100 µM
- EC50 (rat MrgD): 48.3 µM

Compound: CN(C)CCCN1c2ccccc2Sc2ccc(Cl)cc21 [chlorpromazine hydrochloride]
- IC50 (MrgD [4]; read-out: IC50 as MrgD antagonist (Figure 5 legend)): 2.7 µM
- Calcium mobilization following addition of beta-alanine (addition 2) in LOPAC screen (MrgD [3]): attenuation or complete absence of calcium mobilization

Compound: CN[C@@H]1C[C@@H](c2ccc(Cl)c(Cl)c2)c2ccccc21 [indatraline hydrochloride]
- Calcium mobilization following addition of beta-alanine (addition 2) in LOPAC screen (MrgD [3]): attenuation or complete absence of calcium mobilization

Compound: CSc1ccc2c(c1)N(CCC1CCCCN1C)c1ccccc1S2 (centres unmarked) [thioridazine hydrochloride]
- IC50 (MrgD [4]; [9]): 1.06 µM
- Calcium mobilization following addition of beta-alanine (addition 2) in LOPAC screen (MrgD [3]): attenuation or complete absence of calcium mobilization

Compound: pertussis toxin [PTX]
- Reduction in calcium mobilization ([5]; pertussis toxin 100 ng overnight): ~50%
